From patent US8815875B2 (Merck Sharp & Dohme Corp., priority 2008, dated 2014)

Assays:
FABP5 = FABP5 (Homo sapiens, UniProt Q01469); assay: TdCD (Temperature-dependent Circular Dichroism) assay, FABP5; assay type: binding; settings: T=20° C.; compounds tested at 50 μM and 25 μM
Text: [formula] (see Brandts et al and Mayhood et al, shown above) where ΔHL (T) is the van't Hoff enthalpy of ligand binding at temperature T and ΔCpL is the heat capacity upon ligand binding. For simplicity, the ΔCpL and ΔHL (T) were set to zero and −7 kcal/mol respectively. […] TdCD (Temperature-dependent Circular Dichroism) Assay for FABP3/4/5
JASCO 810 spectropolarimeter was used to measure Circular Dichroism (CD) spectra and temperature-dependent protein unfolding profiles. The instrument is equipped with a 6-cell piezoelectric temperature controller. Ellipticity was monitored at 226 nm as a function of temperature with a 1 mm path length cell. The scan rate was 1° C./min with a 4 s response time and 30 s equilibration between measurements.
10 mM stocks of individual compounds were made in 100% DMSO. […] DMSO was added to protein-alone (apo) samples to 1% to compensate for DMSO amounts in protein+ligand samples.
Briefly, the To (midpoint of unfolding for the unliganded protein) was calculated from best fit of the unfolding data to the equation below:
[formula] Where, Yobs is the observed ellipticity value at any temperature T, Yn and Yu are the predicted ellipticity values for fully folded and unfolded species, respectively, mn and mu are slope correction for changes in Yn and Yu with respect to changes in temperature. T0 is the midpoint temperature at which the unliganded protein unfolds and ΔHu and ΔCpu are the heat of unfolding and heat capacity of unfolding, respectively for the unliganded species.
In presence of ligand, the midpoint temperature (Tm) defines where the equilibrium concentrations of unfolded and folded species are equal. Incorporation of the unliganded free energy of binding and subsequent thermodynamic substitution yielded the binding constant of the ligand at the Tm value of unfolding:
[formula] where, T0 is the midpoint of unfolding for unliganded protein and Tm is the midpoint of unfolding in presence of ligand. [LTm] is free ligand at Tm.
Based on estimates for enthalpy of binding, ΔHL (estimated to be −7 kcal/mol) and ligand binding heat capacity ΔCpL (set to be zero), the ligand binding association constant (KL) at temperature T=20° C. were calculated as below.

FABP4 = FABP4 (Homo sapiens, UniProt P15090); assay: TdF (Temperature Dependence Fluorescence) assay, thermal shift, FABP4; assay type: binding
Sequence of FABP4 (P15090 whole entry, species assumed): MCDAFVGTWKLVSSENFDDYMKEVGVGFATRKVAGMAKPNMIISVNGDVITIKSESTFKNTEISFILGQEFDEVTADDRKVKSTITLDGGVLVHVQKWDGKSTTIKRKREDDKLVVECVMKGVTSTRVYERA
How it was run: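 Binding measured as ΔTm versus protein alone; binding constants derived by nonlinear fitting with ΔHL set to −7 kcal/mol and ΔCpL to zero.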

Sequence of FABP5 (Q01469 whole entry, species assumed): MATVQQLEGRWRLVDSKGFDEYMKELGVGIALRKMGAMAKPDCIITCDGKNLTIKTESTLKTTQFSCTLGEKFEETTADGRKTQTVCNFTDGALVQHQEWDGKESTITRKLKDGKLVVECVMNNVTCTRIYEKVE

Row | SMILES | Kd (FABP5) [nM] | FABP4 TdF Kd (FABP4) | Kd (FABP4) [nM]
1 | O=c1cc(COc2csc(C(F)(F)F)c2)[nH]c2nc(-c3ccccc3)nn12 [1-5] | < 500 | B (0.5 ≦ B < 0.001 μM) | –
2 | O=c1cc(CN2CCc3c(Br)cccc32)[nH]c2nc(-c3ccccc3)nn12 [1-17] | > 500 | B (0.5 ≦ B < 0.001 μM) | –
3 | CC1(C)CCCC(OCc2cc(=O)n3nc(-c4ccccc4)nc3[nH]2)C1 (stereo not drawn) [1-152] | < 500 | B (0.5 ≦ B < 0.001 μM) | –
4 | O=c1cc(CN2CCC(Cc3ccc(Cl)cc3)CC2)[nH]c2nc(-c3ccccc3)nn12 [1-78] | – | – | > 500
5 | O=c1cc(CN2CCCc3ccccc32)[nH]c2nc(-c3ccccc3)nn12 [1-13] | – | B (0.5 ≦ B < 0.001 μM) | –
6 | C[C@@H]1C[C@H](OCc2cc(=O)n3nc(-c4ccccc4)nc3[nH]2)CC(C)(C)C1 [1-111] | – | B (0.5 ≦ B < 0.001 μM) | –
7 | Cc1ccoc1-c1nc2[nH]c(COc3cccc(Cl)c3C)cc(=O)n2n1 [1-115] | – | – | > 500

Second part, the compound after the results:

Row | Kd (FABP5) [nM] | FABP4 TdF Kd (FABP4) | Kd (FABP4) [nM] | SMILES
8 | < 500 | – | – | O=c1c(Cl)c(COc2cccc(Cl)c2C2CC2)[nH]c2nc(-c3ccccc3)nn12 [24-1]
9 | < 500 | B (0.5 ≦ B < 0.001 μM) | – | O=c1cc(COc2cccc(Cl)c2C2CCC2)[nH]c2nc(-c3ccccc3)nn12 [26-3]
10 | > 500 | B (0.5 ≦ B < 0.001 μM) | – | Cc1c(Cl)cccc1N(C)Cc1cc(=O)n2nc(-c3ccccc3)nc2[nH]1 [6-4]
11 | > 500 | B (0.5 ≦ B < 0.001 μM) | – | O=c1cc(CN2CCc3c(Cl)cccc32)[nH]c2nc(-c3ccccc3)nn12 [6-3]
12 | < 500 | B (0.5 ≦ B < 0.001 μM) | – | O=c1cc(COc2cccc(Cl)c2C2CC2)[nH]c2nc(-c3ccccc3)nn12 [20-2]
13 | – | – | > 500 | CCc1ccc(OCc2cc(=O)n3nc(C(=O)O)nc3[nH]2)cc1 [9-1]
14 | – | B (0.5 ≦ B < 0.001 μM) | – | O=C(NCC1(c2ccccc2Cl)CC1)c1ccccc1OCc1[nH]c2nc(-c3ccccc3)nn2c(=O)c1Cl [24-8]
15 | – | B (0.5 ≦ B < 0.001 μM) | – | O=C(NCC1(O)CCCC1)c1c(Cl)cccc1OCc1cc(=O)n2nc(-c3ccccc3)nc2[nH]1 [47-15, 2-chloro-N-((1-hydroxycyclopentyl)methyl)-6-((7-oxo-2-phenyl-4,7-dihydro-[1,2,4]triazolo[1,5-a]pyrimidin-5-yl)methoxy)benzamide]
16 | – | B (0.5 ≦ B < 0.001 μM) | – | Cn1nccc1NC(=O)C1(OCc2cc(=O)n3nc(-c4ccccc4)nc3[nH]2)CCCCC1 [48-32]
17 | – | – | > 500 | CCc1ccc(NCc2cc(=O)n3nc(C4CC4)nc3[nH]2)cc1 [5-9]
18 | – | – | > 500 | CCOc1ccc(NCc2cc(=O)n3nc(-c4ccccc4)nc3[nH]2)cc1 [6-2]
19 | – | – | > 500 | O=c1c(Cl)c(CN2CCCC2Cc2cccc(Cl)c2)[nH]c2nc(-c3ccccc3)nn12 (stereo not drawn) [24-5]
20 | – | B (0.5 ≦ B < 0.001 μM) | – | O=C(NC1(c2ccccc2)CC1)C1(OCc2cc(=O)n3nc(-c4ccccc4)nc3[nH]2)CCCCC1 [48-51]
